Assays:
Format in all cases: in vivo
common ragweed [1] = assay: Test Example 3: herbicidal effects in soil treatment; conditions: dose 6.3 g/a
Method in brief: (§1)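 Seeds were sown in sterilized diluvial soil and covered with about 1.5 cm of soil. Compounds, formulated as emulsifiable concentrates and diluted with water, were sprayed evenly over the soil surface at set doses in g/a. Herbicidal effect was scored on a rating scale three weeks later.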

barnyardgrass [2] = assay: as above; conditions: dose 6.3 g/a
Method in brief: as §1

giant foxtail [3] = assay: as above; conditions: dose 6.3 g/a
Method in brief: as §1

redroot pigweed [4] = assay: as above; conditions: dose 6.3 g/a
Method in brief: as §1

large crabgrass [5] = assay: as above; conditions: dose 6.3 g/a
Method in brief: as §1

wild oat [6] = assay: as above; conditions: dose 6.3 g/a
Method in brief: as §1

common lambsquater [7] = assay: as above; conditions: dose 6.3 g/a
Method in brief: as §1

water foxtail [8] = assay: as above; conditions: dose 6.3 g/a
Method in brief: as §1

Italian ryegrass [9] = assay: as above; conditions: dose 6.3 g/a
Method in brief: as §1

bulrush [10] = assay: Test Example 2: herbicidal effects during the vegetation period under submerged conditions; conditions: treatment during the vegetation period under submerged conditions; dose 2.52 g/a
Method in brief: (§2)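 Barnyardgrass, bulrush and ducksalad were co-sown in alluvial soil flooded to 4 cm and grown in a greenhouse at 25 to 30° C. At the 1- or 2-leaf stage, water-diluted emulsifiable concentrates went onto the water surface at set doses (g/a). Herbicidal effect was scored three weeks later on a graded scale.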

barnyardgrass [11] = assay: as above; conditions: treatment during the vegetation period under submerged conditions; dose 2.52 g/a
Method in brief: as §2

ducksalad [12] = assay: as above; conditions: treatment during the vegetation period under submerged conditions; dose 2.52 g/a
Method in brief: as §2

bulrush [13] = assay: Test Example 1: herbicidal effects in preemergence treatment under submerged conditions; conditions: dose 2.52 g/a
Method in brief: (§3)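 Scoring 0 (<5% mortality) to 5 (≥90%) was done three weeks after preemergence application to the water surface of submerged (4 cm) alluvial soil, doses given as g per are. Weeds were seeded and 2.5-leaf rice transplanted on the treatment day; greenhouse at 25–30 °C.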

barnyardgrass [14] = assay: as above; conditions: dose 2.52 g/a
Method in brief: as §3

ducksalad [15] = assay: as above; conditions: dose 2.52 g/a
Method in brief: as §3

common ragweed [16] = assay: Test Example 4: herbicidal effect in foliage treatment; conditions: dose 6.3 g/a, three weeks after application
Method in brief: (§4)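 Herbicidal effect was rated on an evaluation scale three weeks after treatment. Plants had been raised 14 days at 25 to 30° C in sterilized diluvial soil, then received foliar sprays of emulsifiable concentrate diluted in water at predetermined doses expressed as g per are.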

beadstraw = assay: as above; conditions: dose 6.3 g/a, three weeks after application
Method in brief: as §4

barnyardgrass [17] = assay: as above; conditions: dose 6.3 g/a, three weeks after application
Method in brief: as §4

giant foxtail [18] = assay: as above; conditions: dose 6.3 g/a, three weeks after application
Method in brief: as §4

redroot pigweed [19] = assay: as above; conditions: dose 6.3 g/a, three weeks after application
Method in brief: as §4

common chickweed [20] = assay: as above; conditions: dose 6.3 g/a, three weeks after application
Method in brief: as §4

large crabgrass [21] = assay: as above; conditions: dose 6.3 g/a, three weeks after application
Method in brief: as §4

wild oat [22] = assay: as above; conditions: dose 6.3 g/a, three weeks after application
Method in brief: as §4

common lambsquater [23] = assay: as above; conditions: dose 6.3 g/a, three weeks after application
Method in brief: as §4

water foxtail [24] = assay: as above; conditions: dose 6.3 g/a, three weeks after application
Method in brief: as §4

Italian ryegrass [25] = assay: as above; conditions: dose 6.3 g/a, three weeks after application
Method in brief: as §4

transplanted rice = assay: Test Example 1: preemergence treatment under submerged conditions, effect on crop; conditions: dose 2.52 g/a
Method in brief: as §3

common chickweed [26] = assay: Test Example 3: herbicidal effects in soil treatment; conditions: dose 6.3 g/a
Method in brief: as §1

Compound	J: common ragweed, herbicidal effect (evaluation scale 0-5) (common ragweed [1])	A: barnyardgrass, herbicidal effect (evaluation scale 0-5) (barnyardgrass [2])	E: giant foxtail, herbicidal effect (evaluation scale 0-5) (giant foxtail [3])	D: large crabgrass, herbicidal effect (evaluation scale 0-5) (large crabgrass [5])	F: wild oat, herbicidal effect (evaluation scale 0-5) (wild oat [6])	L: common lambsquater, herbicidal effect (evaluation scale 0-5) (common lambsquater [7])	G: water foxtail, herbicidal effect (evaluation scale 0-5) (water foxtail [8])	H: Italian ryegrass, herbicidal effect (evaluation scale 0-5) (Italian ryegrass [9])	B: bulrush, herbicidal effect (evaluation scale 0-5) (bulrush [10])	A: barnyardgrass, herbicidal effect (evaluation scale 0-5) (barnyardgrass [11])	C: ducksalad, herbicidal effect (evaluation scale 0-5) (ducksalad [12])	B: bulrush, herbicidal effect (evaluation scale 0-5) (bulrush [13])	A: barnyardgrass, herbicidal effect (evaluation scale 0-5) (barnyardgrass [14])	C: ducksalad, herbicidal effect (evaluation scale 0-5) (ducksalad [15])	J: common ragweed, herbicidal effect (common ragweed [16])	O: beadstraw, herbicidal effect (beadstraw)	A: barnyardgrass, herbicidal effect (barnyardgrass [17])	E: giant foxtail, herbicidal effect (giant foxtail [18])	N: common chickweed, herbicidal effect (common chickweed [20])	D: large crabgrass, herbicidal effect (large crabgrass [21])	also measured
CC1CC(=O)N(Cc2ccccc2N(C(=O)c2ccccc2)S(=O)(=O)C(F)(F)F)CO1 (centres unmarked) [II-6]	4 (mortality of at least 70% and less than 90%)	5 (mortality of 90% or above (nearly complete death))	4 (mortality of at least 70% and less than 90%)	4 (mortality of at least 70% and less than 90%)	0 (mortality of less than 5% (almost ineffective))	3 (mortality of at least 40% and less than 70%)	5 (mortality of 90% or above (nearly complete death))	3 (mortality of at least 40% and less than 70%)	5 (mortality of 90% or above (nearly complete death))	5 (mortality of 90% or above (nearly complete death))	4 (mortality of at least 70% and less than 90%)	5 (mortality of 90% or above (nearly complete death))	5 (mortality of 90% or above (nearly complete death))	5 (mortality of 90% or above (nearly complete death))	5 (mortality of 90% or above (nearly complete death))	2 (mortality of at least 20% and less than 40%)	5 (mortality of 90% or above (nearly complete death))	4 (mortality of at least 70% and less than 90%)	1 (mortality of at least 5% and less than 20%)	4 (mortality of at least 70% and less than 90%)	K: redroot pigweed, herbicidal effect (evaluation scale 0-5) (redroot pigweed [4]): 0 (mortality of less than 5% (almost ineffective)); K: redroot pigweed, herbicidal effect (redroot pigweed [19]): 0 (mortality of less than 5% (almost ineffective)); F: wild oat, herbicidal effect (wild oat [22]): 0 (mortality of less than 5% (almost ineffective)); L: common lambsquater, herbicidal effect (common lambsquater [23]): 1 (mortality of at least 5% and less than 20%); G: water foxtail, herbicidal effect (water foxtail [24]): 5 (mortality of 90% or above (nearly complete death)); H: Italian ryegrass, herbicidal effect (Italian ryegrass [25]): 3 (mortality of at least 40% and less than 70%); a: transplanted rice, effect on crop (evaluation scale 0-5) (transplanted rice): 0 (mortality of less than 5% (almost ineffective))
CCOC(=O)N(c1ccccc1CN1COC(C)(C)CC1=O)S(=O)(=O)C(F)(F)F [II-23, 6,6-dimethyl-3-[2-(N-ethoxycarbonyl-N-trifluoromethanesulfonyl)aminobenzyl]-1,3-oxazinan-4-one]	5 (mortality of 90% or above (nearly complete death))	5 (mortality of 90% or above (nearly complete death))	5 (mortality of 90% or above (nearly complete death))	5 (mortality of 90% or above (nearly complete death))	0 (mortality of less than 5% (almost ineffective))	2 (mortality of at least 20% and less than 40%)	5 (mortality of 90% or above (nearly complete death))	4 (mortality of at least 70% and less than 90%)	5 (mortality of 90% or above (nearly complete death))	5 (mortality of 90% or above (nearly complete death))	5 (mortality of 90% or above (nearly complete death))	5 (mortality of 90% or above (nearly complete death))	5 (mortality of 90% or above (nearly complete death))	5 (mortality of 90% or above (nearly complete death))	5 (mortality of 90% or above (nearly complete death))	5 (mortality of 90% or above (nearly complete death))	5 (mortality of 90% or above (nearly complete death))	4 (mortality of at least 70% and less than 90%)	4 (mortality of at least 70% and less than 90%)	5 (mortality of 90% or above (nearly complete death))	N: common chickweed, herbicidal effect (evaluation scale 0-5) (common chickweed [26]): 4 (mortality of at least 70% and less than 90%); F: wild oat, herbicidal effect (wild oat [22]): 0 (mortality of less than 5% (almost ineffective)); L: common lambsquater, herbicidal effect (common lambsquater [23]): 4 (mortality of at least 70% and less than 90%); G: water foxtail, herbicidal effect (water foxtail [24]): 5 (mortality of 90% or above (nearly complete death)); H: Italian ryegrass, herbicidal effect (Italian ryegrass [25]): 4 (mortality of at least 70% and less than 90%); a: transplanted rice, effect on crop (evaluation scale 0-5) (transplanted rice): 0 (mortality of less than 5% (almost ineffective))

Source: US20120029187A1, “HALOALKYLSULFONANILIDE DERIVATIVE” (Nissan Chemical Industries, Ltd., priority 2009, published 2012)
